Measurements: patent US12077503B2, “Substituted cyclic amides and their use as herbicides” (FMC CORPORATION, priority 2015, dated 2024)
Like-named read-outs stand apart in the source and are kept apart here.

Key:
Experiment in all cases: Test A preemergence
Format in all cases: in vivo
Kochia (Kochia scoparia) = settings: Bassia scoparia, pre-emergence, 240 h; for pest or weed control at 125 g/ha: 125 g ai/ha; for pest or weed control at 500 g/ha: 500 g ai/ha
How it was run: (§1)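 Seeded soil received test chemicals as a preemergence directed spray, and seedlings at one to two leaves, 2–10 cm tall, received them postemergence, in a non-phytotoxic, surfactant-containing solvent mixture. Pots were held in a greenhouse for approximately 10 d, then rated for injury from 0, no effect, to 100, complete control.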

[1] = system: barnyardgrass (Echinochloa crus-galli); settings: Echinochloa crus-galli, pre-emergence, 240 h; for pest or weed control at 125 g/ha: 125 g ai/ha; for pest or weed control at 500 g/ha: 500 g ai/ha
How it was run: as §1

[2] = system: ryegrass, Italian (Italian ryegrass, Lolium multiflorum); settings: Lolium multiflorum, pre-emergence, 240 h; for pest or weed control at 125 g/ha: 125 g ai/ha; for pest or weed control at 500 g/ha: 500 g ai/ha
How it was run: as §1

[3] = system: ragweed (common ragweed, Ambrosia elatior); settings: Ambrosia artemisiifolia, pre-emergence, 240 h; for pest or weed control at 125 g/ha: 125 g ai/ha; for pest or weed control at 500 g/ha: 500 g ai/ha
How it was run: as §1

[4] = system: giant foxtail (Setaria faberii); settings: Setaria faberi, pre-emergence, 240 h; for pest or weed control at 125 g/ha: 125 g ai/ha; for pest or weed control at 500 g/ha: 500 g ai/ha
How it was run: as §1

[5] = preemergence, 0 to 100 scale where 0 is no effect and 100 is complete control, read-out: Kochia plant response rating
[6] = Preemergence, visual injury vs untreated controls after approximately 10 d, read-out: Kochia plant response rating (0 to 100 scale where 0 is no effect and 100 is complete control)
[7] = preemergence, 0 to 100 scale where 0 is no effect and 100 is complete control, read-out: Barnyardgrass plant response rating
[8] = Preemergence, visual injury vs untreated controls after approximately 10 d, read-out: Barnyardgrass plant response rating (0 to 100 scale where 0 is no effect and 100 is complete control)
[9] = preemergence, 0 to 100 scale where 0 is no effect and 100 is complete control, read-out: Ryegrass, Italian plant response rating
[10] = Preemergence, visual injury vs untreated controls after approximately 10 d, read-out: Ryegrass, Italian plant response rating (0 to 100 scale where 0 is no effect and 100 is complete control)
[11] = preemergence, 0 to 100 scale where 0 is no effect and 100 is complete control, read-out: Ragweed plant response rating
[12] = Preemergence, visual injury vs untreated controls after approximately 10 d, read-out: Ragweed plant response rating (0 to 100 scale where 0 is no effect and 100 is complete control)
[13] = preemergence, 0 to 100 scale where 0 is no effect and 100 is complete control, read-out: Foxtail, Giant plant response rating
[14] = Preemergence, visual injury vs untreated controls after approximately 10 d, read-out: Foxtail, Giant plant response rating (0 to 100 scale where 0 is no effect and 100 is complete control)
[15] = Preemergence, visual injury rating after approximately 10 d, read-out: Kochia plant response rating (0 to 100 scale, 0 is no effect, 100 is complete control)
[16] = preemergence, visual injury rating about 10 d after treatment, 0 to 100 scale (0 no effect, 100 complete control), read-out: Kochia plant response rating
[17] = Preemergence, visual injury rating after approximately 10 d, read-out: Barnyardgrass plant response rating (0 to 100 scale, 0 is no effect, 100 is complete control)
[18] = preemergence, visual injury rating about 10 d after treatment, 0 to 100 scale (0 no effect, 100 complete control), read-out: Barnyardgrass plant response rating
[19] = Preemergence, visual injury rating after approximately 10 d, read-out: Ryegrass, Italian plant response rating (0 to 100 scale, 0 is no effect, 100 is complete control)
[20] = preemergence, visual injury rating about 10 d after treatment, 0 to 100 scale (0 no effect, 100 complete control), read-out: Ryegrass, Italian plant response rating
[21] = Preemergence, visual injury rating after approximately 10 d, read-out: Ragweed plant response rating (0 to 100 scale, 0 is no effect, 100 is complete control)
[22] = preemergence, visual injury rating about 10 d after treatment, 0 to 100 scale (0 no effect, 100 complete control), read-out: Ragweed plant response rating
[23] = Preemergence, visual injury rating after approximately 10 d, read-out: Foxtail, Giant plant response rating (0 to 100 scale, 0 is no effect, 100 is complete control)
[24] = preemergence, visual injury rating about 10 d after treatment, 0 to 100 scale (0 no effect, 100 complete control), read-out: Foxtail, Giant plant response rating

| SMILES | pest or weed control at 125 g/ha (Kochia (Kochia scoparia); [15]) | pest or weed control at 500 g/ha (Kochia (Kochia scoparia); [16]) | pest or weed control at 125 g/ha [1, 17] | pest or weed control at 500 g/ha [1, 18] | pest or weed control at 125 g/ha [2, 19] | pest or weed control at 500 g/ha [2, 20] | pest or weed control at 125 g/ha [3, 21] | pest or weed control at 500 g/ha [3, 22] | pest or weed control at 125 g/ha [4, 23] | pest or weed control at 500 g/ha [4, 24] | further results |
| --- | --- | --- | --- | --- | --- | --- | --- | --- | --- | --- | --- |
| CN1C[C@H](c2cc(F)cc(F)c2)[C@@H](C(=O)Nc2ccc(C(F)(F)F)nc2)C1=O [Compound 870] |  |  |  |  |  |  |  |  |  |  | pest or weed control at 125 g/ha (Kochia (Kochia scoparia); [5]): 0%; pest or weed control at 500 g/ha (Kochia (Kochia scoparia); [6]): 0%; pest or weed control at 125 g/ha [1, 7]: 50%; pest or weed control at 500 g/ha [1, 8]: 80%; pest or weed control at 125 g/ha [2, 9]: 0%; pest or weed control at 500 g/ha [2, 10]: 0%; pest or weed control at 125 g/ha [3, 11]: 0%; pest or weed control at 500 g/ha [3, 12]: 0%; pest or weed control at 125 g/ha [4, 13]: 20%; pest or weed control at 500 g/ha [4, 14]: 50% |
| CC(C)COc1cccc([C@H]2CNC(=O)[C@@H]2C(=O)Nc2cccc(F)c2F)c1 [Compound 965] | 0% | 60% | 90% | 90% | 70% | 90% | 0% | 0% | 90% | 90% |  |
| Cc1cc([C@H]2CNC(=O)[C@@H]2C(=O)Nc2ccccc2Cl)ccc1C(F)(F)F [Compound 1044] | 0% | 50% | 90% | 90% | 0% | 50% | 0% | 30% | 70% | 90% |  |
| COc1c(F)ccc([C@H]2CN(C)C(=O)[C@@H]2C(=O)Nc2ccccc2C(F)(F)F)c1Cl [Compound 896] |  |  |  |  |  |  |  |  |  |  | pest or weed control at 125 g/ha (Kochia (Kochia scoparia); [5]): 30%; pest or weed control at 500 g/ha (Kochia (Kochia scoparia); [6]): 50%; pest or weed control at 125 g/ha [1, 7]: 90%; pest or weed control at 500 g/ha [1, 8]: 90%; pest or weed control at 125 g/ha [2, 9]: 40%; pest or weed control at 500 g/ha [2, 10]: 70%; pest or weed control at 125 g/ha [3, 11]: 0%; pest or weed control at 500 g/ha [3, 12]: 0%; pest or weed control at 125 g/ha [4, 13]: 90%; pest or weed control at 500 g/ha [4, 14]: 100% |
| O=C1NC[C@H](c2ccc3c(c2)CCC3)[C@H]1C(=O)Nc1cccc(F)c1F [Compound 1046] | 60% | 70% | 90% | 90% | 60% | 60% | 40% | 70% | 80% | 90% |  |
| CN1C[C@H](c2cc(F)cc(C(F)(F)F)c2)[C@@H](C(=O)Nc2ccc(F)c(F)c2F)C1=O [Compound 993] | 0% | 50% | 90% | 90% | 80% | 90% | 0% | 60% | 90% | 90% |  |
| Cc1nc([C@H]2CNC(=O)[C@@H]2C(=O)Nc2cccc(F)c2F)cs1 [Compound 1180] |  |  |  |  |  |  |  |  |  |  | pest or weed control at 125 g/ha (Kochia (Kochia scoparia); preemergence, 0 to 100 scale where 0 is no effect and 100 is complete control, approx. 10 d, read-out: Kochia plant response rating): 0%; pest or weed control at 500 g/ha (Kochia (Kochia scoparia); [5]): 30%; pest or weed control at 125 g/ha ([1]; preemergence, 0 to 100 scale where 0 is no effect and 100 is complete control, approx. 10 d, read-out: Barnyardgrass plant response rating): 20%; pest or weed control at 500 g/ha [1, 7]: 70%; pest or weed control at 125 g/ha ([2]; preemergence, 0 to 100 scale where 0 is no effect and 100 is complete control, approx. 10 d, read-out: Ryegrass, Italian plant response rating): 0%; pest or weed control at 500 g/ha [2, 9]: 0%; pest or weed control at 125 g/ha ([3]; preemergence, 0 to 100 scale where 0 is no effect and 100 is complete control, approx. 10 d, read-out: Ragweed plant response rating): 0%; pest or weed control at 500 g/ha [3, 11]: 0%; pest or weed control at 125 g/ha ([4]; preemergence, 0 to 100 scale where 0 is no effect and 100 is complete control, approx. 10 d, read-out: Foxtail, Giant plant response rating): 0%; pest or weed control at 500 g/ha [4, 13]: 50% |
| CN1CC[C@H](c2ccccc2)[C@@H](C(=O)Nc2ccccc2F)C1=O [Compound 1032] | 0% | 0% | 20% | 70% | 0% | 0% | 0% | 0% | 0% | 70% |  |
| CN1C[C@H](c2cc(F)cc(F)c2)[C@@H](C(=O)Nc2ccc(C(F)(F)F)cc2)C1=O [Compound 968] | 0% | 0% | 20% | 60% | 0% | 0% | 0% | 0% | 30% | 60% |  |
| CCOc1cc([C@H]2CN(C)C(=O)[C@@H]2C(=O)Nc2cccc(F)c2F)cc(C(F)(F)F)c1 [Compound 971] | 0% |  | 90% |  | 80% |  | 20% |  | 90% |  | pest or weed control at 31 g/ha (Kochia (Kochia scoparia); Preemergence, 31 g ai/ha, 0 to 100 scale (0 no effect, 100 complete control), read-out: Plant response rating, Kochia): 0%; pest or weed control at 31 g/ha ([1]; Preemergence, 31 g ai/ha, 0 to 100 scale (0 no effect, 100 complete control), read-out: Plant response rating, Barnyardgrass): 70%; pest or weed control at 31 g/ha ([2]; Preemergence, 31 g ai/ha, 0 to 100 scale (0 no effect, 100 complete control), read-out: Plant response rating, Ryegrass, Italian): 50%; pest or weed control at 31 g/ha ([3]; Preemergence, 31 g ai/ha, 0 to 100 scale (0 no effect, 100 complete control), read-out: Plant response rating, Ragweed): 0%; pest or weed control at 31 g/ha ([4]; Preemergence, 31 g ai/ha, 0 to 100 scale (0 no effect, 100 complete control), read-out: Plant response rating, Foxtail, Giant): 70% |
